Measured values published in patent publication US20190374563A1, “TREATMENT OF KLEBSIELLA PNEUMONIAE INFECTIONS WITH ANTIBACTERIAL AMINOGLYCOSIDE COMPOUNDS” (Achaogen, Inc., priority 2009, published 2019).
In brackets after ≈: the same amount, converted by molar mass. Where two headings read alike, the source gives them in different places.

Columns and labels:
[1] = system: E. coli ATCC 25922 (AECO001); assay: MIC assay, CLSI broth microdilution; type: cell-based; design: MIC AECO001: unit not given here; details: for MIC: Escherichia coli; for MIC AECO001: Table 3, E. coli ATCC25922
Experimental: (§1) Minimum inhibitory concentrations (MIC) were determined by reference Clinical and Laboratory Standards Institute (CLSI) broth microdilution methods per M7-A7 [2006]. Quality control ranges utilizing E. coli ATCC 25922, P. aeruginosa ATCC 27853 and S. aureus ATCC 29213, and interpretive criteria for comparator agents were as published in CLSI M100-S17 [2007]. Briefly, serial two-fold dilutions of the test compounds were prepared at 2× concentration in Mueller Hinton Broth. The compound dilutions were mixed in 96-well assay plates in a 1:1 ratio with bacterial inoculum. The inoculum was prepared by suspension of a colony from an agar plate that was prepared the previous day. Bacteria were suspended in sterile saline and added to each assay plate to obtain a final concentration of 5×10^5 CFU/mL. The plates were incubated at 35° C. for 20 hours in ambient air.

[2] = system: P. aeruginosa ATCC 27853 (APAE001); assay: MIC assay, CLSI broth microdilution; type: cell-based; details: Pseudomonas aeruginosa
Experimental: as §1

[3] = ATCC25922, read-out: MIC AECO001
[4] = ATCC27853, read-out: MIC APAE001
[5] = Table 1, AECO001 is ATCC25922, read-out: MIC AECO001
[6] = Table 1, APAE001 is ATCC27853, read-out: MIC APAE001

Compound | MIC [1, 3] | MIC [2, 4] | MIC [1, 5] | MIC AECO001 [1] | MIC [2, 6]
CN[C@@H]1[C@@H](O)[C@@H](O[C@@H]2[C@@H](O)[C@H](O[C@H]3OC(CNCC(O)CCCN)=CC[C@H]3N)[C@@H](N)C[C@H]2NC(=O)[C@@H](O)CCN)OC[C@]1(C)O (stereo partly drawn) [Example 32, 6′-(2-Hydroxy-5-amino-pentyl)-1-(4-amino-2(S)-hydroxy-butyryl)-sisomicin] | < 1 µg/mL | 1 to 16 µg/mL (≈ 1.54 to 24.6 µM) | – | – | –
CN[C@@H]1[C@@H](O)[C@@H](O[C@@H]2[C@@H](O)[C@H](O[C@H]3OC(CNCC4(CN)CC4)=CC[C@H]3N)[C@@H](N)C[C@H]2NC(=O)C2(O)CCNC2)OC[C@]1(C)O (stereo partly shown) [Example 79] | 1 to 16 µg/mL (≈ 1.55 to 24.9 µM) | > 16 µg/mL | – | – | –
CN[C@@H]1[C@@H](O)[C@@H](O[C@@H]2[C@@H](O)[C@H](O[C@H]3OC(CN)=CC[C@H]3NCC(C)(C)CN(C)C)[C@@H](N)C[C@H]2NC(=O)[C@@H](O)CCN)OC[C@]1(C)O [Example 94, 2′-(N,N-Dimethyl-2,2-dimethyl-3-amino-propyl)-1-(4-amino-2(S)-hydroxy-butyryl)-sisomicin] | 1 to 16 µg/mL (≈ 1.51 to 24.2 µM) | > 16 µg/mL | – | – | –
CN[C@@H]1[C@@H](O)[C@@H](O[C@@H]2[C@@H](O)[C@H](O[C@H]3OC(CNCC4CC4)=CC[C@H]3N)[C@@H](N)C[C@H]2NC(=O)[C@H](O)CCN)OC[C@]1(C)O [Example 5, 6′-(Methyl-cyclopropyl)-1-(4-amino-2(R)-hydroxy-butyryl)-sisomicin] | < 1 µg/mL | 1 to 16 µg/mL (≈ 1.66 to 26.5 µM) | – | – | –
CN[C@@H]1[C@@H](O)[C@@H](O[C@@H]2[C@@H](O)[C@H](O[C@H]3OC(CNC(=O)C(O)CN)=CC[C@H]3N)[C@@H](N)C[C@H]2NC(=O)[C@@H](O)CN)OC[C@]1(C)O (stereo partly drawn) [Example 20, 6′-(3-Amino-2-hydroxy-propionyl)-1-(3-amino-2(S)-hydroxy-propionyl)-sisomicin] | > 16 µg/mL | > 16 µg/mL | – | – | –
CN[C@@H]1[C@@H](O)[C@@H](O[C@@H]2[C@@H](O)[C@H](O[C@H]3OC(CNCCO)=CC[C@H]3N)[C@@H](N)C[C@H]2NS(=O)(=O)CCN)OC[C@]1(C)O [Example 29, 6′-(2-Hydroxy-ethyl)-1-(2-amino-ethylsulfonamide)-sisomicin] | 1 to 16 µg/mL (≈ 1.67 to 26.7 µM) | > 16 µg/mL | – | – | –
CN[C@@H]1[C@@H](O)[C@@H](O[C@@H]2[C@@H](O)[C@H](O[C@H]3OC(CNCCCN)=CC[C@H]3N)[C@@H](N)C[C@H]2NC(=O)[C@H](O)CCN)OC[C@]1(C)O [Example 6, 6′-(3-Amino-propyl)-1-(4-amino-2(R)-hydroxy-butyryl)-sisomicin] | 1 to 16 µg/mL (≈ 1.65 to 26.4 µM) | 1 to 16 µg/mL (≈ 1.65 to 26.4 µM) | – | – | –
CN[C@@H]1[C@@H](O)[C@@H](O[C@@H]2[C@@H](O)[C@H](O[C@H]3OC(CNCC(N)CO)=CC[C@H]3N)[C@@H](N)C[C@H]2NC(=O)[C@@H](O)CCN)OC[C@]1(C)O (stereo partly drawn) [Example 30, 6′-(2-Amino-propanol)-1-(4-amino-2(S)-hydroxy-butyryl)-sisomicin] | < 1 µg/mL | 1 to 16 µg/mL (≈ 1.61 to 25.7 µM) | – | – | –
CN[C@@H]1[C@@H](O)[C@@H](O[C@@H]2[C@@H](O)[C@H](O[C@H]3OC(CNCCCN)=CC[C@H]3N)[C@@H](N)C[C@H]2NC(=O)C2(O)CCNC2)OC[C@]1(C)O (stereo partly shown) [Example 40] | 1 to 16 µg/mL (≈ 1.62 to 25.9 µM) | 1 to 16 µg/mL (≈ 1.62 to 25.9 µM) | – | – | –
CN[C@@H]1[C@@H](O)[C@@H](O[C@@H]2[C@@H](O)[C@H](O[C@H]3OC(CNCC4CC4)=CC[C@H]3N)[C@@H](N)C[C@H]2NC(=O)[C@@H](O)CCN)OC[C@]1(C)O [Example 18, 6′-(Methyl-cyclopropyl)-1-(4-amino-2(S)-hydroxy-butyryl)-sisomicin] | – | – | < 1 µg/mL | 1 | 1 to 16 µg/mL (≈ 1.66 to 26.5 µM)
CN[C@@H]1[C@@H](O)[C@@H](O[C@@H]2[C@@H](O)[C@H](O[C@H]3OC(CN)=CC[C@H]3NCC(N)CO)[C@@H](N)C[C@H]2NC(=O)[C@@H](O)CCN)OC[C@]1(C)O (stereo partly drawn) [Example 97, 2′-(2-Amino-propanol)-1-(4-amino-2(S)-hydroxy-butyryl)-sisomicin] | < 1 µg/mL | 1 to 16 µg/mL (≈ 1.61 to 25.7 µM) | – | – | –
CN[C@@H]1[C@@H](O)[C@@H](O[C@@H]2[C@@H](O)[C@H](O[C@H]3OC(CNCCO)=CC[C@H]3N)[C@@H](N)C[C@H]2NC(=O)C(O)C2CNC2)OC[C@]1(C)O (stereo partly shown) [Example 75, 6′-(2-Hydroxy-ethyl)-1-(2-(azetidin-3-yl)-2-hydroxy-acetyl)-sisomicin] | 1 to 16 µg/mL (≈ 1.65 to 26.5 µM) | > 16 µg/mL | – | – | –
CN[C@@H]1[C@@H](O)[C@@H](O[C@@H]2[C@@H](O)[C@H](O[C@H]3OC(CNCC4CNC4)=CC[C@H]3N)[C@@H](N)C[C@H]2NC(=O)[C@@H](O)CN)OC[C@]1(C)O [Example 73, 6′-(Methyl-azetidin-3-yl)-1-(3-amino-2(S)-hydroxy-propionyl)-sisomicin] | 1 to 16 µg/mL (≈ 1.66 to 26.5 µM) | 1 to 16 µg/mL (≈ 1.66 to 26.5 µM) | – | – | –
CN[C@@H]1[C@@H](O)[C@@H](O[C@@H]2[C@@H](O)[C@H](O[C@H]3OC(CNCC4CC4)=CC[C@H]3N)[C@@H](N)C[C@H]2NC(=O)C2(O)CCNC2)OC[C@]1(C)O (stereo partly shown) [Example 41] | < 1 µg/mL | 1 to 16 µg/mL (≈ 1.63 to 26 µM) | – | – | –
CN[C@@H]1[C@@H](O)[C@@H](O[C@@H]2[C@@H](O)[C@H](O[C@H]3OC(CN)=CC[C@H]3NCCCN)[C@@H](N)C[C@H]2NC(=O)[C@@H](O)CCN)OC[C@]1(C)O [Example 91, 2′-(3-Amino-propyl)-1-(4-amino-2(S)-hydroxy-butyryl)-sisomicin] | < 1 µg/mL | < 1 µg/mL | – | – | –
CN[C@@H]1[C@@H](O)[C@@H](O[C@@H]2[C@@H](O)[C@H](O[C@H]3OC(CNCCCCCN)=CC[C@H]3N)[C@@H](N)C[C@H]2NC(=O)[C@@H](O)CCN)OC[C@]1(C)O [Example 44, 6′-(5-Amino-pentyl)-1-(4-amino-2(S)-hydroxy-butyryl)-sisomicin] | < 1 µg/mL | 1 to 16 µg/mL (≈ 1.58 to 25.2 µM) | – | – | –
CN[C@@H]1[C@@H](O)[C@@H](O[C@@H]2[C@@H](O)[C@H](O[C@H]3OC(CNCC(O)CCN)=CC[C@H]3N)[C@@H](N)C[C@H]2NC(=O)[C@@H](O)CN)OC[C@]1(C)O (stereo partly drawn) [Example 68, 6′-(2-Hydroxy-4-amino-butyl)-1-(3-amino-2(S)-hydroxy-propionyl)-sisomicin] | 1 to 16 µg/mL (≈ 1.61 to 25.7 µM) | 1 to 16 µg/mL (≈ 1.61 to 25.7 µM) | – | – | –
CN[C@@H]1[C@@H](O)[C@@H](O[C@@H]2[C@@H](O)[C@H](O[C@H]3OC(CNCC(O)CN)=CC[C@H]3N)[C@@H](N)C[C@H]2NC(=O)C(O)C2CNC2)OC[C@]1(C)O (stereo partly shown) [Example 82, 6′-(2-Hydroxy-3-amino-propyl)-1-(2-(azetidin-3-yl)-2-hydroxy-acetyl)-sisomicin] | 1 to 16 µg/mL (≈ 1.58 to 25.2 µM) | > 16 µg/mL | – | – | –
CNCC1=CC[C@@H](N)[C@@H](O[C@H]2[C@H](O)[C@@H](O[C@H]3OC[C@](C)(O)[C@H](NC)[C@H]3O)[C@H](NC(=O)C3(O)CNC3)C[C@@H]2N)O1 [Example 61] | – | – | < 1 µg/mL | 1 | 1 to 16 µg/mL (≈ 1.78 to 28.5 µM)
CN[C@@H]1[C@@H](O)[C@@H](O[C@@H]2[C@@H](O)[C@H](O[C@H]3OC(CNCC(C)(C)CN)=CC[C@H]3N)[C@@H](N)C[C@H]2NC(=O)[C@@H](O)CN)OC[C@]1(C)O [Example 51, 6′-(2,2-Dimethyl-3-amino-propyl)-1-(3-amino-2(S)-hydroxy-propionyl)-sisomicin] | < 1 µg/mL | > 16 µg/mL | – | – | –
CN[C@@H]1[C@@H](O)[C@@H](O[C@@H]2[C@@H](O)[C@H](O[C@H]3OC(CN)=CC[C@H]3NC(=O)C(C)N)[C@@H](N)C[C@H]2NC(=O)[C@@H](O)CCN)OC[C@]1(C)O (stereo partly drawn) [Example 88, 2′-(2-Amino-propionyl)-1-(4-amino-2(S)-hydroxy-butyryl)-sisomicin] | 1 to 16 µg/mL (≈ 1.61 to 25.8 µM) | 1 to 16 µg/mL (≈ 1.61 to 25.8 µM) | – | – | –
CN[C@@H]1[C@@H](O)[C@@H](O[C@@H]2[C@@H](O)[C@H](O[C@H]3OC(CNCCCN)=CC[C@H]3N)[C@@H](N)C[C@H]2NC(=O)[C@@H](O)CCN)OC[C@]1(C)O [Example 48, 6′-(3-Amino-propyl)-1-(4-amino-2(S)-hydroxy-butyryl)-sisomicin] | – | – | < 1 µg/mL | 1 | 1 to 16 µg/mL (≈ 1.65 to 26.4 µM)
CN[C@@H]1[C@@H](O)[C@@H](O[C@@H]2[C@@H](O)[C@H](O[C@H]3OC(CNCC4(N)CC4)=CC[C@H]3N)[C@@H](N)C[C@H]2NC(=O)[C@@H](O)CN)OC[C@]1(C)O [Example 67, 6′-(Methyl-1-Amino-cyclopropyl)-1-(3-amino-2(S)-hydroxy-propionyl)-sisomicin] | 1 to 16 µg/mL (≈ 1.66 to 26.5 µM) | 1 to 16 µg/mL (≈ 1.66 to 26.5 µM) | – | – | –
CN[C@@H]1[C@@H](O)[C@@H](O[C@@H]2[C@@H](O)[C@H](O[C@H]3OC(CN)=CC[C@H]3NC(=O)CN)[C@@H](N)C[C@H]2NC(=O)[C@@H](O)CCN)OC[C@]1(C)O [Example 87, 2′-(2-Amino-acetyl)-1-(4-amino-2(S)-hydroxy-butyryl)-sisomicin] | 1 to 16 µg/mL (≈ 1.65 to 26.4 µM) | 1 to 16 µg/mL (≈ 1.65 to 26.4 µM) | – | – | –
CNCC1=CC[C@@H](NC(=N)N)[C@@H](O[C@H]2[C@H](O)[C@@H](O[C@H]3OC[C@](C)(O)[C@H](NC)[C@H]3O)[C@H](N)C[C@@H]2N)O1 [Example 108, 6′-Methyl-2′-guanidinium-sisomicin] | < 1 µg/mL | 1 to 16 µg/mL (≈ 1.99 to 31.8 µM) | – | – | –
CN[C@@H]1[C@@H](O)[C@@H](O[C@@H]2[C@@H](O)[C@H](O[C@H]3OC(CNCCNC4CNC4)=CC[C@H]3N)[C@@H](N)C[C@H]2NC(=O)[C@@H](O)CN)OC[C@]1(C)O [Example 81, 6′-(N-(Azetidin-3-yl)-2-amino-ethyl)-1-(3-amino-2(S)-hydroxy-propionyl)-sisomicin] | 1 to 16 µg/mL (≈ 1.58 to 25.3 µM) | > 16 µg/mL | – | – | –
